We go through one compound from US11806359B2 (priority 2020, dated 2023).

One data set has as its system huPBMCs. The data set is described as follows: Cytotoxicity/apoptosis in primary huPBMCs, Annexin V-FITC/PI staining. It counts as cell-based, human. Conditions: compared to the vehicle control, 72 hrs. As to the method: Primary buffy-coat huPBMCs were isolated and stimulated with phytohemagglutinin (PHA) and cultured in the presence of recombinant human interleukin-2 (hIL-2). The cells were then treated for 72 hrs with increasing concentrations of oleandrin or a N. oleander extract, or with increasing volumes of the Vehicle. The samples were subsequently stained with Annexin V-FITC and PI and the relative percentages of apoptotic (i.e., Annexin V-FITC and/or PI-positive) cells per field were quantified by confocal fluorescence-microscopy and counting in-triplicate.
Cytotoxic effects of the Vehicle control, N. oleander extract, and the oleandrin compound were assessed by treating primary huPBMCs for 72 hrs, and then the cultures were stained with Annexin V-FITC and PI. The relative percentages of apoptotic (i.e., Annexin V-FITC and/or PI-positive) cells were quantified by fluorescence-microscopy and counting triplicate visual fields using a 20× objective lens. The total numbers of cells were determined using DIC phase-contrast microscopy. Cyclophosphamide (50 μM)-treated cells were included as a positive control for apoptosis. NA indicates the number of cells in this sample was too low for accurate assessment due to higher toxicity. […]

For the compound `CO[C@H]1C[C@H](O[C@H]2CC[C@@]3(C)[C@H](CC[C@@H]4[C@@H]3CC[C@]3(C)[C@@H](C5=CC(=O)OC5)[C@@H](OC(C)=O)C[C@]43O)C2)O[C@@H](C)[C@@H]1O` [oleandrin], the cellular toxicity result with VERO CCL-81 cells is “no cellular toxicity was observed”. In addition, the “cytotoxicity in huPBMCs” value in the data set with huPBMCs is recorded as “moderate cytotoxicity”.
